For experiment [1], the system named is NMDA receptor. Put plainly: NMDA assay: fura-2 measurement of cytosolic calcium in cultured rat cerebellar granule cells. In kind it is cell-based. How it is done:
All culture media, antibiotics, and enzymes, with the exception of fetal calf serum (Hyclone Laboratories, Logan, UT), were purchased from Sigma Chemical Co., St. Louis, MO. Fura-2/AM was obtained from Molecular Probes, Eugene, OR, and was prepared freshly in dimethylsulfoxide (DMSO) before use. Ionomycin (Calbiochem) was stored as a stock solution in DMSO. Nifedipine (Sigma) and nimodipine (RBI) were dissolved in absolute ethanol. […] All other agents were dissolved in phosphate-buffered saline (PBS), and adjusted to pH 7.4
Briefly, primary cultures of cerebellar granule neurons were obtained from 8-day-old rats and plated onto squares of Aclar plastic coated with poly-L-lyaine. The plastic squares were placed in 12-well culture plates, and ~7.5 x 10^5 cells were added to each well. […] No changes of culture medium were made until the cells were used for fluorescence recording 6-8 days after plating.
The cells were then rinsed with the same buffer, lacking fura-2/AM, and maintained at room temperature until used for measurement of fluorescence, the Aclar squares were transferred into quartz cuvettes containing 2 ml of the HEPES buffer. […] Fluorescence was measured using excitation and emission wavelengths of 340 and 510 nm, respectively.

The target in experiment [2] is NMDA receptor. Put plainly: [3H]MK-801 binding assay, synaptic plasma membranes from rat cortex. The settings on record: read-out: [^3H]MK-801 data IC50. The procedure: Synaptic plasma membranes (SPMs) from rat cortex were prepared as follows. […] The cortices from 25 rats were thawed and pooled. […] The extensive washing procedure utilized in this assay was designed to minimize the concentrations of glutamate and glycine (co-agonists at the NMDA receptor-ionophore complex) present in the membrane preparation.
On the day of assay, aliquots of SPM were thawed and resuspended in 75 vols of 5 mM K-EDTA, pH 7.0.
The SPM pellet was resuspended in assay buffer (30 mM EPPS, 1 mM K-EDTA, pH 7.0) by polytron. […] Binding was started by the addition of the tissue homogenate. The assay was terminated by the addition of 4 ml ice-cold buffer, followed by filtration over glass-fiber filters (Schleicher & Schuell No. 30) on a Millipore 12-well filtration manifold. […] Radioactivity on the filters was measured using Fisherbrand Scinti-Safe scintillation cocktail. Samples were shaken for 45-60 min on a shaker platform to solubilize the radioactivity. Counting for ^3H was performed in a Beckman 6000IC LS Scintillation Counter for 4 min per sample.

The target of experiment [3] is norepinephrine transporter site (Rattus norvegicus, UniProt Q63380). Put plainly: Norepinephrine reuptake inhibition assay ([3H]nisoxetine binding, forebrain membranes). Conditions: read-out: NE Uptake, mean % inhibition. The procedure: (§1) Monoamine transporter binding assays (reuptake inhibition assays) were performed by NovaScreen using standard radioligand binding assays. The transporter binding assays are described briefly below:
(§2) Reactions were terminated by rapid vacuum filtration onto glass fiber filters.

For experiment [4], the target named is dopamine transporter site (Cavia porcellus, UniProt H0WCX4). Put plainly: Dopamine reuptake inhibition assay ([3H]WIN 35428 binding, striatal membranes). On the set-up: species or system Guinea pig. The settings on record: read-out: DA Uptake, mean % inhibition; for inhibition at 0.1 µM: @ 100 nM (top number); for inhibition at 10 µM: @ 10.0 µM (bottom number). How it is done:
as §1, §2

The values below come from EP1790337A2, “Methods and compounds for treating depression and other disorders” (priority 1998, dated 2000).

Structures are written as SMILES. Where a name gives a salt, the structure may show the parent alone. A value given as a limit tells only on which side of the number the result lay.

A word on the IC50: it is the midpoint of a concentration-inhibition curve. Broadly, the inhibition is the change of the read-out against control, counted positive when it falls.

Sequence of norepinephrine transporter site (Q63380 1-617): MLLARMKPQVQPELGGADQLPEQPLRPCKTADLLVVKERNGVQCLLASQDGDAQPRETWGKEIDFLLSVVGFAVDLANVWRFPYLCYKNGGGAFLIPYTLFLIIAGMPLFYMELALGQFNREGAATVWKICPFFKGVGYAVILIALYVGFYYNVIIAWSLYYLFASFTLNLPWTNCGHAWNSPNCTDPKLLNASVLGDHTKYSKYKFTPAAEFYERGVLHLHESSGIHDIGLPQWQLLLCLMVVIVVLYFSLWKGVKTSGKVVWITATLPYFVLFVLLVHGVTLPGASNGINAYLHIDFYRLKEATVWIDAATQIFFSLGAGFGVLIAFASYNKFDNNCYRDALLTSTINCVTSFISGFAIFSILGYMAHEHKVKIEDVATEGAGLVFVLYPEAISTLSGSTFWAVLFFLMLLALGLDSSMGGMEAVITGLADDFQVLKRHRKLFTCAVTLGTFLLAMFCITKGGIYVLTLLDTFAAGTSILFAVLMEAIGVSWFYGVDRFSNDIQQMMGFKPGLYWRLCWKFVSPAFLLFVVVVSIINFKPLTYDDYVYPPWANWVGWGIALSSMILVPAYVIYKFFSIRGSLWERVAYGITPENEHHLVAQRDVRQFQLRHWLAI
Sequence of dopamine transporter site (H0WCX4 1-619): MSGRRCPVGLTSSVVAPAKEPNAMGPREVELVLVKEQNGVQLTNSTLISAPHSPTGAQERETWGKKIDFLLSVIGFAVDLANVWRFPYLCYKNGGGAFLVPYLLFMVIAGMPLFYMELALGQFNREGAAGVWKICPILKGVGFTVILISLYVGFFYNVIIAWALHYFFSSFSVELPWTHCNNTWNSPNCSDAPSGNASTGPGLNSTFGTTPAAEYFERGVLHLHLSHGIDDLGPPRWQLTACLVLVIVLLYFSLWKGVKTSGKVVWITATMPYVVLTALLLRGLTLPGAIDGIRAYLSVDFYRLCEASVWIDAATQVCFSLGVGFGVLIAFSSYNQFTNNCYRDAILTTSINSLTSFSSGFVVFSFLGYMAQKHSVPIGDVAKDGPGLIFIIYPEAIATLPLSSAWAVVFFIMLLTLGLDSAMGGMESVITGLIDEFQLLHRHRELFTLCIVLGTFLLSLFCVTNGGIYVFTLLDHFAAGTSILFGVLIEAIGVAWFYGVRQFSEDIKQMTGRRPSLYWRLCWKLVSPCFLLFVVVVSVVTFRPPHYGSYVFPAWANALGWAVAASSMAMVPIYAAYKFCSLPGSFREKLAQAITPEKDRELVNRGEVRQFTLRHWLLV

Take `NCCC(Oc1cccc(F)c1)c1cccc(F)c1` (stereo not drawn) [Compound 119, 3-(3-Fluorophenoxy)-3-(3-fluorophenyl)-1-propylamine]: the 50% inhibitory concentration (IC50) in the experiment on NMDA receptor [1] (read-out: fura2 data IC50, fura-2 [Ca2+]i) worked out at 0.115 µM; on NMDA receptor [2] it was 0.087 µM. Also, the inhibition at 0.1 µM in experiment [3] turned out to be 8.9%; in experiment [4] it was 1.9%. Moreover, the inhibition at 10 µM in experiment [3] was found to be 19.4%; in experiment [4] it was 58.3%.
With `NCCC1c2ccccc2CCc2ccccc21` [Compound 156, 5-(2-Aminoethyl)-5H-10, 11-dihydrodibenzo [a,d] cycloheptene hydrochloride], the IC50 with NMDA receptor [1] (fura-2 [Ca2+]i, read-out: fura2 data IC50) is 0.069 µM.
With `CNCCC(Oc1ccc(C(F)(F)F)cc1)c1ccccc1` (stereo not drawn) [Fluoxetine], the inhibition at 10 µM in experiment [4] stood at 78%.
`Fc1ccc([C@@H]2CCNC[C@H]2COc2ccc3c(c2)OCO3)cc1` [Paroxetine, reference compound]: in experiment [3], the inhibition at 0.1 µM was less than 20% and the inhibition at 10 µM came to 50%. Further, in experiment [4], the inhibition at 0.1 µM was less than 20% and the inhibition at 10 µM is 97%.
